Measured values published in paper PMC5674494, “Use of Cyclic Backbone NGR-Based SPECT to Increase Efficacy of Postmyocardial Infarction Angiogenesis Imaging” (Contrast Media & Molecular Imaging, 2017).

Columns and labels:
[1] = in vitro; assay type: in vitro ADME; conditions: human, whole blood
Method: ^111[…], or ^111In-co(NGR)4 was added to […] human blood in heparin (BD Biosciences, […], The Netherlands). Blood stability was tested at 0, 10, 30, and 50 min. For each time point imaging agents were separated from blood cells and proteins by adding 0.5 mL MeCN (VWR International BV, Breda, The Netherlands) to 0.5 mL blood sample followed by centrifugation (2,000 ×g, 3 min). Supernatant samples were analyzed by HPLC using the above-mentioned method.

[2] = biological target: T1, CD13 (Mus musculus, UniProt P97449); experiment: Dual-isotope micro-SPECT, SUV of 111In-labeled NGR tracers in heart segments of MI mice; assay type: in vivo, Swiss mice; conditions: MI mice 7 days after LAD ligation, mean ± SEM
T1 construct: the level of CD13 expression was markedly higher in the infarcted myocardium of MI animals; from tissue; host or cells: heart (myocardium) of living Swiss mice, 7 days after MI
T1 sequence (P97449 1-966): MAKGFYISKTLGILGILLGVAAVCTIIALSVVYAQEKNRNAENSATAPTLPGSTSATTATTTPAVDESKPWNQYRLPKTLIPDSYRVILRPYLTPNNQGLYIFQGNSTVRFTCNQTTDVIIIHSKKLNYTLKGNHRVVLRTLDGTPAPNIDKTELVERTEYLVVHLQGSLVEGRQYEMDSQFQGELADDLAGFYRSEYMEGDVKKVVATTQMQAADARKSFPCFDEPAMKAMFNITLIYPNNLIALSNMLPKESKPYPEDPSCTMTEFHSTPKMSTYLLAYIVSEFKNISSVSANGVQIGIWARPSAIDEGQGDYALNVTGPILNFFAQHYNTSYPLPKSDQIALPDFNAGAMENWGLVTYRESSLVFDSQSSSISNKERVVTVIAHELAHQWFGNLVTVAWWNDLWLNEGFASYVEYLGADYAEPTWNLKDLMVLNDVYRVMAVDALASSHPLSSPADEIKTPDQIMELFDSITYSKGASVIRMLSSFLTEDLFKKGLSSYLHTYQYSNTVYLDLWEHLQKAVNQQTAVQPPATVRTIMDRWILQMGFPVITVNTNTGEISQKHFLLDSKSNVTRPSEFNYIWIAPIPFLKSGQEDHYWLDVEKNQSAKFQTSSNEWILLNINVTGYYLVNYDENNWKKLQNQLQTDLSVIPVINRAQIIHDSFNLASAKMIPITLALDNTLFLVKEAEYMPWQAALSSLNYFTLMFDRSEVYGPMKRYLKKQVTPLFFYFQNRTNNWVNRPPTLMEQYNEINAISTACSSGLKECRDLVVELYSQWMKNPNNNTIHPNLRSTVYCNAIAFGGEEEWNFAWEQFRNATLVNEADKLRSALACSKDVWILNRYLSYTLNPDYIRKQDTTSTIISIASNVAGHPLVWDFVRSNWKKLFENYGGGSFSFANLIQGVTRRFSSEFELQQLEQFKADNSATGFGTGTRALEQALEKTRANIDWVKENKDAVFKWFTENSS
Method: (§1) In 10–12-week-old male Swiss mice, we induced MI by ligation of the left anterior descending coronary artery (LAD) as described before to test coNGR (n = 5) or co(NGR)4 (n = 8). A group of sham-operated Swiss mice (n = 5) was used as control. SPECT imaging was performed 7 days after MI or sham surgery. All animals were held under the guidelines of the animal care facility (Maastricht University). All animal experiments were approved by the Committee for Animal Welfare of Maastricht University.
Mice were anesthetized with isoflurane (induction 2.5%; maintenance 1.5%), a catheter was placed in a tail vein, and animals were positioned in the SPECT camera (MILabs, Utrecht, The Netherlands). Prior to image acquisition, a bolus injection of ^99mTc-sestamibi and ^111In-coNGR or ^111In-co(NGR)4 was given intravenously (i.v.) in a maximum volume of 200 µL. Table S1 in Supplementary Material available online at https://doi.org/10.1155/2017/8638549 provides an overview of the average injected dose. Immediately after injection, 4 consecutive time frames of 15 min each were acquired. For image quantification we used the last of these frames.
Acquired list mode data was reconstructed using MILabs reconstruction software (version 2.51) employing the POS-EM algorithm (6 iterations and 16 subsets, reconstructed at a voxel size of 0.4 mm). ^99mTc and ^111In images were reconstructed by selecting photo peak and background energy levels as described before.
To allow quantification of imaging agent uptake, in vivo isotope-specific conversion factors (CF) were determined for the 0.6 mm collimator in a representative phantom with a known activity. Using the previously described method the following conversion factors (CF), CF99mTc 612 MBq/mL and CF111In 643 MBq/mL, were found.
PMOD 3.7 cardiac tool PCARD (PMOD technologies, Zürich, Switzerland) was used to segment the heart in the 17-segment model. Uptake per segment was subsequently expressed as a mean standardized uptake value (SUVmean), also using the previously described method. For body weight, we assumed that 1 g equalled 1 mL.

[3] = Octanol/water partition coefficient (logP); assay type: physicochemical; conditions: 111In-labeled tracer, separate experiment 2 of 3, N = 3, method as ref 22
Method: The logP value of each compound was determined in three separate experiments as described previously.

[4] = design: species or system Swiss mice; conditions: mouse, in vivo
Method: as §1, with “University. After imaging, the vital organs were harvested and kept for gamma-counting (Wallac Wizard, Turku, Finland). Acquired data were expressed as percentage injected dose per gram tissue (% ID/g).” for “University.”

[5] = 111In tracer i.v., last of 4 15-min SPECT frames, SUVmean, 17-segment model, n = 5 coNGR, n = 8 co(NGR)4
[6] = 111In-labeled tracer i.v., last of 4 consecutive 15 min SPECT frames

In the case of `N=C(N)NCCC[C@@H]1NC(=O)CNC(=O)[C@H](CC(N)=O)NC(=O)[C@H](CSC2CC(=O)N(CC3CCC(C(=O)NCCCC[C@H](NC(=O)C4CCC(CN5C(=O)CC(SC[C@@H]6NC(=O)CNC(=O)[C@H](CCCNC(=N)N)NC(=O)CNC(=O)[C@H](CC(N)=O)NC6=O)C5=O)CC4)C(=O)NCCCC[C@H](NC(=O)[C@H](CCCCNC(=O)C4CCC(CN5C(=O)CC(SC[C@@H]6NC(=O)CNC(=O)[C@H](CCCNC(=N)N)NC(=O)CNC(=O)[C@H](CC(N)=O)NC6=O)C5=O)CC4)NC(=O)C4CCC(CN5C(=O)CC(SC[C@@H]6NC(=O)CNC(=O)[C@H](CCCNC(=N)N)NC(=O)CNC(=O)[C@H](CC(N)=O)NC6=O)C5=O)CC4)C(=O)N[C@@H](CCCCNC(=O)[C@@H](N)CSC4CC(=O)N(CC5CCC(C(=O)NCCCCC(C(=O)O)N(CCN(CC(=O)O)CC(=O)O)CCN(CC(=O)O)CC(=O)O)CC5)C4=O)C(N)=O)CC3)C2=O)NC(=O)CNC1=O` (some centres unmarked) [co(NGR)4], the remaining at 50 min [1] was 25.3%, the “SUV of NGR imaging agent, segment 1. Basal anterior” value [2, 5] was 0.37 ± 0.06 and the “SUV of NGR imaging agent, segment 2. Basal anteroseptal” value [2, 5] was 0.37 ± 0.05. For the same molecule, the “SUV of NGR imaging agent, segment 3. Basal inferoseptal” value [2, 5] was 0.40 ± 0.05, the “SUV of NGR imaging agent, segment 4. Basal inferior” value [2, 5] was 0.41 ± 0.06 and the “SUV of NGR imaging agent, segment 5. Basal inferolateral” value [2, 5] was 0.46 ± 0.07. For the same molecule, the “SUV of NGR imaging agent, segment 6. Basal anterolateral” value [2, 5] was 0.40 ± 0.07, the “SUV of NGR imaging agent, segment 7. Mid anterior” value [2, 5] was 0.32 ± 0.04 and the “SUV of NGR imaging agent, segment 8. Mid anteroseptal” value [2, 5] was 0.36 ± 0.03. The “SUV of NGR imaging agent, segment 9. Mid inferoseptal” value [2, 5] was 0.59 ± 0.06, the “SUV of NGR imaging agent, segment 10. Mid inferior” value [2, 5] was 0.56 ± 0.08 and the “SUV of NGR imaging agent, segment 11. Mid inferolateral” value [2, 5] was 0.44 ± 0.07. For the same molecule, the “SUV of NGR imaging agent, segment 12. Mid anterolateral” value [2, 5] was 0.40 ± 0.05, the “SUV of NGR imaging agent, segment 13. Apical anterior” value [2, 5] was 0.54 ± 0.07 and the “SUV of NGR imaging agent, segment 14. Apical septal” value [2, 5] was 0.80 ± 0.09. The “SUV of NGR imaging agent, segment 15. Apical inferior” value [2, 5] was 0.82 ± 0.08, the “SUV of NGR imaging agent, segment 16. Apical lateral” value [2, 5] was 0.54 ± 0.06 and the “SUV of NGR imaging agent, segment 17. Apex” value [2, 5] was 0.76 ± 0.10. For the same molecule, the “SUV in segments affected by MI” value [2, 6] was 0.57 ± 0.03, the “SUV in segments not affected by MI” value [2, 6] was 0.43 ± 0.02 and the logP2 [3] was −3.64 ± 0.03. The kidney uptake [4] was “Substantial kidney uptake” and the urinary excretion ([4]; iv) was 54.9 ± 9.1 % ID/g.
